The values below come from patent US6603044B1, “Phthalamide derivatives, or salt thereof agrohorticultural insecticide, and method for using the same” (Nihon Nohyaku Co., Ltd., priority 1998, dated 2003).

What all share (assay type): in vivo
In data set [1] the test system is Smaller tea Tortrix (Adoxophyes sp.). The data set is described as follows: Insecticidal effect on smaller tea tortrix (Test Example 3). The note with it: 50 ppm; tea leaf immersed 30 seconds; larvae; 25° C., humidity 70%; eight days after the inoculation. Here is the method: Insecticidal Effect on Smaller tea Tortrix (Adoxophyes sp.)
A leaf of tea tree was immersed for 30 seconds in a liquid chemical containing each compound listed in Table 1, 2 or 3 as an active ingredient to adjust the concentration to 50 ppm. After air-dryness, the leaf was transferred to a plastic dish with a diameter of 9 cm and inoculated with larval smaller tea tortrix. Then, the leaf was allowed to stand in a room thermostatted at 25° C. at a humidity of 70%. Eight days after the inoculation, the dead and alive were counted, and the insecticidal effect was judged according to the same criterion as mentioned in Test Example 1. The test was carried out with triplicate groups of 10 insects.

The subject of data set [2] is Diamond Back Moth (Plutella xylostella). Description: Insecticidal effect on diamond back moth (Test Example 1). The note with it: 50 ppm; Chinese cabbage seedling with deposited eggs immersed about 30 seconds; 25° C.; six days after the immersion. The gist of the method: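 Chinese cabbage seedlings carrying two-day-old eggs were dipped about 30 seconds in a 50 ppm dilution of formulated compound, air-dried and kept at 25° C. Hatched larvae were counted six days later to derive mortality, with triplicate groups of 10 insects.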

In data set [3] the test system is Common Cutworm (Spodoptera Litura). The data set is described as follows: Insecticidal effect on common cutworm (Test Example 2). The note with it: 50 ppm; cabbage leaf immersed about 30 seconds; second-instar larvae; 25° C.; eight days after the inoculation. The text has this: Insecticidal Effect on Common Cutworm (Spodoptera Litura)
A piece of cabbage leaf (cultivar; Shikidori) was immersed for about 30 seconds in a liquid chemical prepared by diluting a preparation containing each compound listed in Table 1, 2 or 3 as an active ingredient to adjust the concentration to 50 ppm. After air-dryness, it was placed in a plastic Petri dish with a diameter of 9 cm and inoculated with second-instar larvae of common cutworm, after which the dish was closed and then allowed to stand in a room thermostatted at 25° C. Eight days after the inoculation, the dead and alive were counted. The mortality was calculated according to the following equation and the insecticidal effect was judged according to the criterion shown in Test Example 1. The test was carried out with triplicate groups of 10 insects. [formula]

Turning to `CSCCC(C)NC(=O)c1cccc(I)c1C(=O)Nc1ccc(C(F)(C(F)(F)F)C(F)(F)F)cc1C` (stereo not shown) [Compound No. 162, 6-Iodo-N^1-(4-heptafluoroisopropyl-2-methylphenyl)-N^2-(1-methyl-3-methylthiopropyl)phthalamide], the “Test Example 3 insecticidal effect (mortality)” value in data set [1] is recorded as “A (100)”. Further, the “Test Example 1 insecticidal effect (mortality)” value in data set [2] is “A (100)”. For the same molecule, the “Test Example 2 insecticidal effect (mortality)” value in data set [3] is “A (100)”.

Consider `CSCCC(C)NC(=O)c1c(I)cccc1C(=O)Nc1ccc(C(F)(C(F)(F)F)C(F)(F)F)cc1C` (stereo not shown) [Compound No. 195, 3-Iodo-N^1-(4-heptafluoroisopropyl-2-methylphenyl)-N^2-(1-methyl-3-methylsulfenylpropyl)-phthalamide], for which, in data set [1], the “Test Example 3 insecticidal effect (mortality)” value is “A (100)”. Further, the “Test Example 1 insecticidal effect (mortality)” value in data set [2] is “A (100)”. In addition, in data set [3], the “Test Example 2 insecticidal effect (mortality)” value is recorded as “A (100)”.

As for `Cc1cc(C(F)(C(F)(F)F)C(F)(F)F)ccc1NC(=O)c1cccc(I)c1C(=O)NC(C)CCS(C)(=O)=O` (stereo not shown) [Compound No. 196, 3-Iodo-N^1-(4-heptafluoroisopropyl-2-methylphenyl)-N^2-(1-methyl-3-methylsulfonylpropyl)-phthalamide], the “Test Example 3 insecticidal effect (mortality)” value in data set [1] is recorded as “A (100)”. Also, the “Test Example 1 insecticidal effect (mortality)” value in data set [2] is “A (100)”. Besides, in data set [3], the “Test Example 2 insecticidal effect (mortality)” value is “A (100)”.

On to `CSCC(C)NC(=O)c1c(OC(F)(F)F)cccc1C(=O)Nc1ccc(C(F)(C(F)(F)F)C(F)(F)F)cc1C` (stereo not shown) [Compound No. 210, N^1-(4-Heptafluoroisopropyl-2-methylphenyl)-N^2-3-(1-methyl-2-methylthioethyl)-3-trifluoromethoxyphthalamide], for which, in data set [1], the “Test Example 3 insecticidal effect (mortality)” value is listed as “A (100)”. Also, the “Test Example 1 insecticidal effect (mortality)” value in data set [2] is “A (100)”. Also, in data set [3], the “Test Example 2 insecticidal effect (mortality)” value is “A (100)”.

Turning to `Cc1cc(OC(F)(F)F)ccc1NC(=O)c1ccc(Cl)c(Cl)c1C(=O)NC(C)C[S+](C)[O-]` (stereo not shown) [compound 193], in data set [2], the “Test Example 1 insecticidal effect (mortality)” value is “A (100)”. Further, in data set [3], the “Test Example 2 insecticidal effect (mortality)” value is recorded as “D (79-50)”.

`CSCC(C)(C)NC(=O)c1c(Br)cccc1C(=O)Nc1ccc(OC(F)(F)F)cc1Cl` [compound 227]: the “Test Example 1 insecticidal effect (mortality)” value in data set [2] was “A (100)”. The “Test Example 2 insecticidal effect (mortality)” value in data set [3] is “A (100)”.

As to `CC(C)(CS(C)(=O)=O)NC(=O)c1c(Br)cccc1C(=O)Nc1ccc(OC(F)(F)F)cc1Cl` [compound 228], the “Test Example 1 insecticidal effect (mortality)” value in data set [2] is given as “A (100)”. Also, the “Test Example 2 insecticidal effect (mortality)” value in data set [3] is “A (100)”.

In the case of `C[S+]([O-])CC(C)(C)NC(=O)c1c(Br)cccc1C(=O)Nc1ccc(OC(F)(F)F)cc1Cl` (stereo not shown) [compound 232], the “Test Example 1 insecticidal effect (mortality)” value in data set [2] is recorded as “A (100)”. Further, the “Test Example 2 insecticidal effect (mortality)” value in data set [3] is “A (100)”.

`CSCC(C)NC(=O)c1c(I)cccc1C(=O)Nc1ccc(OC(F)(F)F)cc1Cl` (stereo not shown) [compound 233]: in data set [2], the “Test Example 1 insecticidal effect (mortality)” value was “A (100)”. Also, the “Test Example 2 insecticidal effect (mortality)” value in data set [3] was “A (100)”.

On to `CCS(=O)(=O)CC(C)(C)NC(=O)c1c(I)cccc1C(=O)Nc1ccc(OC(F)(F)F)cc1C` [compound 250], for which the “Test Example 1 insecticidal effect (mortality)” value in data set [2] is reported as “A (100)”. Besides, in data set [3], the “Test Example 2 insecticidal effect (mortality)” value is reported as “A (100)”.

As to `CSCC(C)NC(=O)c1c(C(=O)Nc2ccc(OC(F)(F)F)cc2C)ccc2c1OC(F)(F)O2` (stereo not shown) [compound 290], the “Test Example 1 insecticidal effect (mortality)” value in data set [2] is “A (100)”. In addition, the “Test Example 2 insecticidal effect (mortality)” value in data set [3] is “D (79-50)”.

Turning to `Cc1cc(C(F)(F)F)ccc1NC(=O)c1cccc(Br)c1C(=O)NC(C)(C)C[S+](C)[O-]` (stereo not shown) [compound 311], in data set [2], the “Test Example 1 insecticidal effect (mortality)” value is recorded as “A (100)”. The “Test Example 2 insecticidal effect (mortality)” value in data set [3] is on record as “A (100)”.

Consider `CSCC(C)NC(=O)c1c(Br)cccc1C(=O)Nc1ccc(OC(F)(F)F)cc1Cl` (stereo not shown) [compound 337], for which, in data set [2], the “Test Example 1 insecticidal effect (mortality)” value is “A (100)”. Further, the “Test Example 2 insecticidal effect (mortality)” value in data set [3] was “A (100)”.

Consider `CC(C[S+](C)[O-])NC(=O)c1c(Br)cccc1C(=O)Nc1ccc(OC(F)(F)F)cc1Cl` (stereo not shown) [compound 338], for which the “Test Example 1 insecticidal effect (mortality)” value in data set [2] is “A (100)”. Also, the “Test Example 2 insecticidal effect (mortality)” value in data set [3] is “A (100)”.

Consider `COCC[S+]([O-])CC(C)NC(=O)c1c(I)cccc1C(=O)Nc1ccc(C(F)(C(F)(F)F)C(F)(F)F)cc1C` (stereo not shown) [compound 340], for which, in data set [2], the “Test Example 1 insecticidal effect (mortality)” value is recorded as “A (100)”. Moreover, the “Test Example 2 insecticidal effect (mortality)” value in data set [3] is listed as “A (100)”.

As to `C[S+]([O-])CC(C)(C)NC(=O)c1c(Cl)cccc1C(=O)Nc1ccc(OC(F)(F)F)cc1Cl` (stereo not shown) [compound 370], the “Test Example 1 insecticidal effect (mortality)” value in data set [2] is recorded as “A (100)”. Further, in data set [3], the “Test Example 2 insecticidal effect (mortality)” value is given as “A (100)”.

As to `Cc1cc(C(F)(F)C(F)(F)F)ccc1NC(=O)c1cccc([N+](=O)[O-])c1C(=O)NC(C)(C)CS(C)(=O)=O` [compound 375], the “Test Example 1 insecticidal effect (mortality)” value in data set [2] was “A (100)”. Moreover, the “Test Example 2 insecticidal effect (mortality)” value in data set [3] is listed as “A (100)”.

`CC(C[S+](C)[O-])NC(=O)c1c(Cl)cccc1C(=O)Nc1ccc(OC(F)(F)F)cc1Cl` (stereo not shown) [compound 381]: the “Test Example 1 insecticidal effect (mortality)” value in data set [2] is reported as “A (100)”. The “Test Example 2 insecticidal effect (mortality)” value in data set [3] was “A (100)”.

Turning to `CSCC(C)(C)NC(=O)c1c(F)cccc1C(=O)Nc1ccc(OC(F)(F)F)cc1Cl` [compound 385], the “Test Example 1 insecticidal effect (mortality)” value in data set [2] is reported as “A (100)”. In data set [3], the “Test Example 2 insecticidal effect (mortality)” value is “C (89-80)”.

As to `Cc1cc(Oc2ncc(C(F)(F)F)cc2Cl)ccc1NC(=O)c1cccc(I)c1C(=O)NC(C)C[S+](C)[O-]` (stereo not shown) [compound 410], the “Test Example 1 insecticidal effect (mortality)” value in data set [2] was “A (100)”. Also, the “Test Example 2 insecticidal effect (mortality)” value in data set [3] is “A (100)”.

With `CNC(=S)SCC(C)NC(=O)c1c(I)cccc1C(=O)Nc1ccc(C(F)(C(F)(F)F)C(F)(F)F)cc1C` (stereo not shown) [compound 425], in data set [2], the “Test Example 1 insecticidal effect (mortality)” value is “A (100)”. Moreover, the “Test Example 2 insecticidal effect (mortality)” value in data set [3] is “A (100)”.
